For 26 molecules, inhibition and IC50 results are on record in ChEMBL document CHEMBL3779797, “Isoindole-1,3-dione derivatives as RSK2 inhibitors: synthesis, molecular docking simulation and SAR analysis” (Medchemcomm, 2016).

Sequence of Ribosomal protein S6 kinase alpha-2 (Homo sapiens) (Q15349 whole entry): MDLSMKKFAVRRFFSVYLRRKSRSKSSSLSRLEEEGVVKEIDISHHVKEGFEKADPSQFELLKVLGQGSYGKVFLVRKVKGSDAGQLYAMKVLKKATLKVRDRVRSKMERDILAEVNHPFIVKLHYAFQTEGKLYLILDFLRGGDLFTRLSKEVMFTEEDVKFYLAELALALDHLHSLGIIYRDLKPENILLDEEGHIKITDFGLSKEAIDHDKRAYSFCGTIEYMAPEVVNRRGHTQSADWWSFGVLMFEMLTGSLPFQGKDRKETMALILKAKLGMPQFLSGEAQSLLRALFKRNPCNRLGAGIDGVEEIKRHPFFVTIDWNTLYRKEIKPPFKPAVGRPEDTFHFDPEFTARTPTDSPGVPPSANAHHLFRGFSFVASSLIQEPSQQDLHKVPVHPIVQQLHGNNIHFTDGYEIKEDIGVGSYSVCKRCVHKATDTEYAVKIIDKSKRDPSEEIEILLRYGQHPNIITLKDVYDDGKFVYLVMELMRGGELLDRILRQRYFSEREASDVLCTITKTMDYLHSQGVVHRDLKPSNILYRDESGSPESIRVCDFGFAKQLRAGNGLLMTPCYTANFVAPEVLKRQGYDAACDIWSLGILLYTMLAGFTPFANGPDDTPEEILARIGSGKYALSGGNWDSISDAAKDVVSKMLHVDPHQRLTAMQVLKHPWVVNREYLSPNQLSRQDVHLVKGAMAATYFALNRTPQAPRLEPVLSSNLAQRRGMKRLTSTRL

The first assay has as its target Ribosomal protein S6 kinase alpha-2 (Homo sapiens) (UniProt Q15349). In words: Inhibition of N-terminal His6 tagged full-length human recombinant active RSK2 at 10 uM using S6 peptide after 20 mins by fluorescence assay.
Broadly, the inhibition is the drop in the measured response relative to a control, in per cent. For the molecule `CCN(CC)c1ccc(NCN2C(=O)c3ccccc3C2=O)c(C)c1`, the inhibition came to 81%.
Turning to `Cn1cc(C2=C(c3cn(CCCSC(=N)N)c4ccccc34)C(=O)NC2=O)c2ccccc21` [BISINDOLYLMALEIMIDE IX], the inhibition came to 98.2%.
Still for that read-out and setting: as for `O=C1c2ccccc2C(=O)N1CNc1ccc(O)cc1`, the figure is 101%; as for `Cc1ccc(NCN2C(=O)c3ccc([N+](=O)[O-])cc3C2=O)cc1`, 35.7%; as for `CCOc1ccc(NCN2C(=O)c3cccc(NC(=O)c4ccccc4)c3C2=O)cc1`, 105%.
Still for that read-out and setting: with `COc1ccc(NCN2C(=O)c3ccccc3C2=O)cc1` the figure was 97.2%.
In the case of `O=C1c2ccccc2C(=O)N1CNc1ccc(N2CCOCC2)cc1`, the inhibition is 101%.
On the same count and under the same terms, with `O=C1c2ccccc2C(=O)N1CNc1ccc(OC(F)(F)F)cc1` the figure was 28.1%; with `O=C(Nc1ccc2c(c1)C(=O)N(CNc1ccc(N3CCOCC3)cc1)C2=O)c1ccccc1`, 103%.
On to `O=C1c2ccccc2C(=O)N1CNc1ccc(Cl)cc1`, for which the inhibition is 8.52%.
For the molecule `Cc1ccc(NCN2C(=O)c3ccccc3C2=O)cc1`, the inhibition stood at 54%.
For the molecule `O=C1c2ccccc2C(=O)N1CNc1ccccc1`, the inhibition was found to be 43.6%.
The same measure, in the same setting: as for `COc1ccc(N(C)CN2C(=O)c3ccccc3C2=O)cc1`, the figure is 87%.
With `O=C1c2ccccc2C(=O)N1CNc1ccc(F)cc1`, the inhibition came to 56.7%.
`COc1ccc(NCN2C(=O)c3cccc(NC(=O)c4ccccc4)c3C2=O)cc1`: the inhibition is 99.5%.
Same read-out and setting: with `CCOc1ccc(NCN2C(=O)c3ccc([N+](=O)[O-])cc3C2=O)cc1` the figure was 87%.
Same read-out and setting: as for `COc1ccc(NCN2C(=O)c3ccc(N)cc3C2=O)cc1`, the figure is 109%.
The same measure, in the same setting: with `COc1ccc(NCN2C(=O)c3ccc(NC(=O)Nc4ccccc4)cc3C2=O)cc1` the figure was 34.8%.
For `CCc1ccc(NCN2C(=O)c3ccccc3C2=O)cc1`, the inhibition turned out to be 63%.
Same read-out and setting: with `COc1ccc(NCN2C(=O)c3ccc(NC(=O)c4ccccc4)cc3C2=O)cc1` the figure was 82%; with `CC(C)c1ccc(NCN2C(=O)c3ccccc3C2=O)cc1`, 46.5%.
On the same count and under the same terms, as for `CCOc1ccc(NCN2C(=O)c3ccc(NC(=O)c4ccccc4)cc3C2=O)cc1`, the figure is 69.5%; as for `CCOc1ccc(NCN2C(=O)c3ccccc3C2=O)cc1`, 100%.
Take `COc1ccc(NCN2C(=O)c3cccc(N)c3C2=O)cc1`: the inhibition stood at 95.6%.
Still for that read-out and setting: as for `COc1ccc(N(CN2C(=O)c3ccccc3C2=O)C(C)=O)cc1`, the figure is 17.2%.

Tested on in a further assay: not listed separately
In words: Inhibition of RSK2 in rabbit skeletal muscle using KKRNRTLSVA as substrate after 10 mins in presence of [gamma32P]ATP. More on the design: species or system Oryctolagus cuniculus.
What is called IC50 is the concentration that inhibits the measured activity by half. As to `Cn1cc(C2=C(c3cn(CCCSC(=N)N)c4ccccc34)C(=O)NC2=O)c2ccccc21` [BISINDOLYLMALEIMIDE IX], the IC50 amounted to 3 nM.
With `CN(C)CCCn1cc(C2=C(c3c[nH]c4ccccc34)C(=O)NC2=O)c2ccccc21` [GF-109203], the IC50 was 50 nM.
